Here are results for 6 compounds from PMC3362676 (Cellular Signalling, 2012).

In data set [1] the target is kB2R (Homo sapiens, UniProt P30411). The note with it: HEK-kB2R.
For data set [2] the following is noted: ref [2], [9], [21], [24]; cited from earlier work.
Data set [3] relates to HEK cells stably expressing kB1R. The settings on record: HEK cells expressing only the kB1R; 10 μM peptide in PBS; 30 min, 37 °C; HPLC.
For data set [4], the system named is CPM. The experiment in a line: HEK cells stably expressing CPM, in PBS. The settings on record: human, 37 °C, up to 30 min.

Ends that are not written are not given here. Peptide text beside a SMILES is read from it.

kB2R, sequence (P30411 whole entry): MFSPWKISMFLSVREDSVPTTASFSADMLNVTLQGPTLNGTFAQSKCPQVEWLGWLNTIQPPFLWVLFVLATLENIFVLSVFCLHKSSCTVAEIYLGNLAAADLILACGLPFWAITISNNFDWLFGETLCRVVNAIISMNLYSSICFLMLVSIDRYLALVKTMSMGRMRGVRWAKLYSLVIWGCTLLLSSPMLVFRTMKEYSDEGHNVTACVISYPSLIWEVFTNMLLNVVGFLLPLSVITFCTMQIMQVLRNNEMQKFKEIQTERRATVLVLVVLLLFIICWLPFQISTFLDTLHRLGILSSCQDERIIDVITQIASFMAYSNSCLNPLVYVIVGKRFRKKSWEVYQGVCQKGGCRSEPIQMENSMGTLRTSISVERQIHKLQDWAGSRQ

For the compound `N=C(N)NCCC[C@H](NC(=O)[C@H](Cc1ccccc1)NC(=O)[C@@H]1CCCN1C(=O)[C@H](CO)NC(=O)[C@H](Cc1ccccc1)NC(=O)CNC(=O)[C@@H]1CCCN1C(=O)[C@@H]1CCCN1C(=O)[C@@H](N)CCCNC(=N)N)C(=O)O` [BK, Bradykinin] (H-RPPGFSPFR-OH), the “maximal ERK1/2 phosphorylation maintained from 40 – 60 min” value in data set [1] (1 μM BK, 40 – 60 min) stood at 40%.
Consider `NC(N)=NCCC[C@H](NC(=O)[C@H](Cc1ccccc1)NC(=O)[C@@H]1CCCN1C(=O)[C@H](CO)NC(=O)[C@H](Cc1ccccc1)NC(=O)CNC(=O)[C@@H]1CCCN1C(=O)[C@@H]1CCCN1C(=O)[C@@H](N)CCCN=C(N)N)C(=O)O` [BK, Bradykinin] (H-RPPGFSPFR-OH), for which, in data set [2], the lifetime in vivo entry is given as “lower than 30 seconds”. Further, in data set [3], the hydrolysis of peptide entry was “no detectable hydrolysis”.
Turning to `NCCCC[C@H](N)C(=O)N[C@@H](CCCN=C(N)N)C(=O)N1CCC[C@H]1C(=O)N1CCC[C@H]1C(=O)NCC(=O)N[C@@H](Cc1ccccc1)C(=O)N[C@@H](CO)C(=O)N1CCC[C@H]1C(=O)N[C@@H](Cc1ccccc1)C(=O)N[C@@H](CCCN=C(N)N)C(=O)O` [KD, Kallidin], the lifetime in vivo result in data set [2] was “lower than 30 seconds”. Besides, in data set [1] (1 μM KD, 40 min), the “maximal ERK1/2 activation still remaining at 40 min” value is listed as 80%.
Take KRPPGFSPFK: the cleaved bond entry in data set [4] is given as “Phe-Lys10, 30 min”.
Still for that read-out and setting: the same measure for RPPGFSPFK: “Phe-Lys9, 30 min”; for RPPGFSPFR: “Phe-Arg9, 30 min”.
